Data taken from patent US11618810B2, “Antiviral articles” (priority 2020, dated 2023).

Columns and labels:
[1] = test system: SARS-CoV-2 S and N protein; assay: Western blot of SARS-CoV-2 S and N protein levels; details: SARS-CoV-2, after exposure
Protocol: FIG. 3C is a Western blot analysis of IAV HA and NP protein levels after exposure of IAV to the fabric of Example 3-A and comparative example A. Both the virus that was removed (eluate) from each fabric with PBSTE as well as the virus that remained on each fabric was analyzed and reported in FIG. 3D. Similarly, a Western blot analysis of SARS-CoV-2 S and N protein levels after exposure of virus to the Example 3-A and comparative example A as shown in FIG. 3E. Both the virus that was removed (eluate) from each fabric with PBSTE as well as the virus that remained on each fabric were analyzed and reported in FIG. 3F.
There was no effect on the viral nucleoprotein, which allowed use of the viral nucleoprotein as internal control. A similar altered surface protein to nucleoprotein ratio on the zinc-embedded PA66 fabrics was observed.

[2] = test system: IAV (H1N1)
Protocol: To investigate if zinc ions can directly inactivate IAV, influenza virus was incubated with varying concentrations of zinc chloride.

[3] = test system: IAV NA segment; assay: RT-qPCR of viral RNA (NA segment); details: for viral RNA integrity (RT-qPCR): after treatment
[4] = test system: MDCK cells
[5] = test system: IAV HA and NP protein; assay: Western blot of IAV HA and NP protein levels; details: for stability of virus surface protein HA: IAV, after exposure
[6] = IAV in the presence of zinc chloride

Structure (SMILES) | stability of virus surface protein S [1] | reduction on the IAV titer ([2]; 60 min incubation, varying concentrations, stopped with equimolar EDTA) | viral NA segment levels (RT-qPCR) ([3]; IAV after zinc chloride and EDTA neutralization) | viral RNA integrity (RT-qPCR) [3] | cytotoxic effects in tissue culture [4] | HA levels (western blot) [5, 6] | NP levels (western blot) [5, 6] | stability of virus surface protein HA [5] | effect on viral titer ([2]; EDTA alone)
[Cl-].[Cl-].[Zn+2] [zinc chloride] | reduced stability | approximately 2 log | No effect | no significant reduction | cytotoxic | reduced in a concentration-dependent manner | did not diminish | reduced stability | 
[Cu+2] [copper ions] | aberrant migration |  |  | no significant reduction |  |  |  | aberrant migration | 
O=C(O)CN(CCN(CC(=O)O)CC(=O)O)CC(=O)O [EDTA] |  |  |  |  |  |  |  |  | does not have any cytotoxic effects itself or reduce the viral titer
